Laboratory results reported in article PMC11846289, “New tetrahydroisoquinolines bearing nitrophenyl group targeting HSP90 and RET enzymes: synthesis, characterization and biological evaluation” (BMC Chemistry, 2025).
≈ marks a conversion by molar mass, not a printed value.

Experiments:
[1] = tested on: MG-63 (human osteosarcoma); test: one spot 100 µg/ml cytotoxicity, MG-63; assay type: cell-based; details: for inhibition at 100 µg/mL: Homo sapiens, MG-63, percent inhibition, read-out: one spot concentration inhibition, MG-63
[2] = tested on: HCT116 (colon carcinoma human); test: one spot 100 µg/ml cytotoxicity, HCT116; assay type: cell-based; details: for inhibition at 100 µg/mL: Homo sapiens, HCT-116, percent inhibition, read-out: one spot concentration inhibition, HCT116
[3] = tested on: CACO2 (colon carcinoma human); test: one spot 100 µg/ml cytotoxicity, CACO2; assay type: cell-based; details: for inhibition at 100 µg/mL: Homo sapiens, Caco-2, percent inhibition, read-out: one spot concentration inhibition, CACO2
[4] = tested on: A549 (human lung carcinoma); test: one spot 100 µg/ml cytotoxicity, A549; assay type: cell-based; details: for inhibition at 100 µg/mL: Homo sapiens, A549, percent inhibition, read-out: one spot concentration inhibition, A549
[5] = tested on: H460 (human lung carcinoma); test: one spot 100 µg/ml cytotoxicity, H460; assay type: cell-based; details: for inhibition at 100 µg/mL: Homo sapiens, NCI-H460, percent inhibition, read-out: one spot concentration inhibition, H460
[6] = tested on: HUH7 (human liver carcinoma); test: one spot 100 µg/ml cytotoxicity, HUH7; assay type: cell-based; details: for inhibition at 100 µg/mL: Homo sapiens, Huh-7, percent inhibition, read-out: one spot concentration inhibition, HUH7
[7] = tested on: HEPG2 (human liver carcinoma); test: one spot 100 µg/ml cytotoxicity, HEPG2; assay type: cell-based; details: for inhibition at 100 µg/mL: Homo sapiens, HepG2, percent inhibition, read-out: one spot concentration inhibition, HEPG2
[8] = tested on: MCF7 (human breast carcinoma); test: one spot 100 µg/ml cytotoxicity, MCF7; assay type: cell-based; details: for inhibition at 100 µg/mL: Homo sapiens, MCF7, percent inhibition, read-out: one spot concentration inhibition, MCF7
[9] = tested on: normal human skin cell line (HSF); test: one spot 100 µg/ml cytotoxicity, normal skin cell line HSF; assay type: cell-based; details: for cytotoxicity at 100 µg/mL / inhibition at 100 µg/mL: Homo sapiens; for cytotoxicity at 100 µg/mL: HSF, read-out: Inhibition percent of HSF cell line; for inhibition at 100 µg/mL: read-out: one spot concentration inhibition, HSF
HSF = test: IC50 against normal cell line HSF; assay type: cell-based, human; details: normal skin cell line HSF; for IC50: Homo sapiens, read-out: IC50 FOR HSF ± S.D.
MCF7 cell line = test: MTT in vitro cytotoxicity, MCF7; assay type: cell-based, human; details: for Selectivity Index = IC50 of HSF/ IC50 of MCF7: HSF vs MCF7; for IC50: Homo sapiens, read-out: IC50 for MCF7 ± S.D
Experimental: (§1) Using the MTT test method, the in vitro cytotoxicity of our synthesized compounds at different doses ranging from […] was examined in two cell lines, HEPG2 and MCF7, to examine 50% of the cancer cells dying.
(§2) Some of the synthesized compounds were tested as anticancer activity for the IC50 against two cell lines HEPG2 and MCF7 cells according to method. All cell lines were obtained from national cancer institute, Cairo—Egypt.

HEPG2 cell line = test: MTT in vitro cytotoxicity, HEPG2; assay type: cell-based, human; details: for Selectivity Index = IC50 of HSF/IC50 of HEPG2: HSF vs HEPG2; for IC50: Homo sapiens, read-out: IC50 for HEPG2 ± S.D
Experimental: as §1, §2

Row | Compound | inhibition at 100 µg/mL [1] | inhibition at 100 µg/mL [2] | inhibition at 100 µg/mL [3] | inhibition at 100 µg/mL [4] | inhibition at 100 µg/mL [5] | inhibition at 100 µg/mL [6] | inhibition at 100 µg/mL [7] | inhibition at 100 µg/mL [8] | cytotoxicity at 100 µg/mL ([9]; one spot 100 µg/ml) | inhibition at 100 µg/mL ([9]; 100 µg/ml, supplement Table S1) | IC50 (HSF) | Selectivity Index = IC50 of HSF/ IC50 of MCF7 (MCF7 cell line) | IC50 (MCF7 cell line; MTT, MCF7) | Selectivity Index = IC50 of HSF/IC50 of HEPG2 (HEPG2 cell line) | IC50 (HEPG2 cell line; MTT, HEPG2) | further results
1 | CC(=O)C1C(c2cccc([N+](=O)[O-])c2)c2c(C)[nH]c(=S)c(C#N)c2CC1(C)O (centres unmarked) [Compound 2a, 7-Acetyl-4-cyano-1,6-dimethyl-6-hydroxy-8-(3-nitrophenyl)−5,6,7,8-tetra-hydroisoquinoline-3(2H)-thione] | 41.9% | 62.3% | 55.1% | 42.4% | 55.3% | 27.4% | 61.3% | 74% | 48% | 46.2% | 100 µg/mL (≈ 252 µM) | > 2 | 35 ± 0.061 µg/mL (≈ 88.1 µM) | 1.2 | 82 ± 0.054 µg/mL (≈ 206 µM) | Selectivity Index = IC50 of HSF/ IC50 of MCF7 (MCF7 cell line; listed as 2A): 2.8
2 | CCOC(=O)CSc1nc(C)c2c(c1C#N)CC(C)(O)C(C(C)=O)C2c1cccc([N+](=O)[O-])c1 (centres unmarked) [Compound 4, Ethyl 2-[(7-acetyl-4-cyano-1,6-dimethyl-6-hydroxy-8-(3-nitrophenyl)−5,6,7,8-tetra-hydroisoquinolin-3-yl)thio]acetate] | 53.8% | 56.8% | 64.4% | 47.2% | 66.8% | 27.5% | 62.1% | 76.3% | 50% | 49.4% | 100 µg/mL (≈ 207 µM) | 2.1 | 47 ± 0.055 µg/mL (≈ 97.2 µM) | 1.2 | 80 ± 0.07 µg/mL (≈ 165 µM) | 
3 | CC(=O)C1C(c2ccc([N+](=O)[O-])cc2)c2c(C)nc(SCC#N)c(C#N)c2CC1(C)O (centres unmarked) [Compound 5, 2-[(7-Acetyl-4-cyano-1,6-dimethyl-6-hydroxy-8-(4-nitrophenyl)−5,6,7,8-tetra-hydroisoquinolin-3-yl)thio]acetoonitriile] | 55.7% | 58.9% | 61.5% | 55.2% | 66.6% | 35.5% | 68.2% | 67.6% | 70% | 66.8% | 71 µg/mL (≈ 163 µM) | 2.1 | 33 ± 0.042 µg/mL (≈ 75.6 µM) | 0.73 | 97 ± 0.053 µg/mL (≈ 222 µM) | 
4 | CC(=O)c1ccc(NC(=O)CSc2nc(C)c3c(c2C#N)CC(C)(O)C(C(C)=O)C3c2cccc([N+](=O)[O-])c2)cc1 (centres unmarked) [Compound 6a, 2-[(7-Acetyl-4-cyano-1,6-dimethyl-6-hydroxy-8-(3-nitrophenyl)−5,6,7,8-tetra-hydroisoquinolin-3-yl)thio]-N-(4-acetylphenyl)acetamide] | 45.8% | 58.1% | 54.8% | 20.3% | 63.5% | 38.6% | 59.5% | 66.4% | 56% | 53.5% | 89 µg/mL (≈ 155 µM) | > 2 | 21 ± 0.057 µg/mL (≈ 36.7 µM) |  | > 100 µg/mL | Selectivity Index = IC50 of HSF/ IC50 of MCF7 (MCF7 cell line; listed as 6A): 4.2
5 | CC(=O)c1ccc(NC(=O)c2sc3nc(C)c4c(c3c2N)CC(C)(O)C(C(C)=O)C4c2cccc([N+](=O)[O-])c2)cc1 (centres unmarked) [Compound 7a, 7-Acetyl-N-(4-acetylophenyl)−1-amino-5,8-dimethyl-8-hydroxy-6-(3-nitro-phenyl)−6,7,8,9-tetrahydrothieno[2,3-c]isoquinoline-2-carboxamide] |  |  |  |  |  |  |  |  |  |  |  | 1.8 |  | 0.92 |  | one spot concentration inhibition, MG-63 ([1]; percent inhibition): 50.44%; one spot concentration inhibition, HCT116 ([2]; percent inhibition): 59.7%; one spot concentration inhibition, CACO2 ([3]; percent inhibition): 58.2%; one spot concentration inhibition, A549 ([4]; percent inhibition): 46.81%; one spot concentration inhibition, H460 ([5]; percent inhibition): 59.87%; one spot concentration inhibition, HUH7 ([6]; percent inhibition): 32.35%; one spot concentration inhibition, HEPG2 ([7]; percent inhibition): 58.67%; one spot concentration inhibition, MCF7 ([8]; percent inhibition): 57.92%; one spot concentration inhibition, HSF ([9]; 100 µg/ml, supplement Table S1): 51.85%; Inhibition percent of HSF cell line ([9]; one spot 100 µg/ml): 55%; IC50 FOR HSF ± S.D. (HSF): 90 µg/mL (≈ 157 µM); IC50 for MCF7 ± S.D (MCF7 cell line; MTT, MCF7): 50 ± 0.031 µg/mL; IC50 for HEPG2 ± S.D (HEPG2 cell line; MTT, HEPG2): 97 ± 0.054 µg/mL
6 | CC(=O)C1C(c2cccc([N+](=O)[O-])c2)c2c(C)nc(SCC(=O)Nc3cccc4ccccc34)c(C#N)c2CC1(C)O (centres unmarked) [Compound 8a, 2-[(7-Acetyl-4-cyano-1,6-dimethyl-6-hydroxy-8-(3-nitrophenyl)−5,6,7,8-tetrahydro-isoquinolin-3-yl)thio]-N-(naphthalen-1-yl)acetamide] | 38.5% | 56.1% | 53.2% | 46.2% | 59.6% | 25.9% | 60% | 72.4% | 59% | 56.9% | 84 µg/mL (≈ 145 µM) | 1.6 | 50 ± 0.019 µg/mL (≈ 86.1 µM) | 0.95 | 88 ± 0.072 µg/mL (≈ 152 µM) | 
7 | CC(=O)C1C(c2ccc([N+](=O)[O-])cc2)c2c(C)nc(SCC(=O)Nc3cccc4ccccc34)c(C#N)c2CC1(C)O (centres unmarked) [Compound 8b, 2-[(7-Acetyl-4-cyano-1,6-dimethyl-6-hydroxy-8-(4-nitrophenyl)−5,6,7,8-tetrahydro-isoquinolin-3-yl)thio]-N-(naphthalen-1-yl)acetamide] | 57.5% | 67.5% | 41.7% | 15.2% | 62% | 30.2% | 66.6% | 57.2% | 50% | 48.2% | 100 µg/mL (≈ 172 µM) | > 2 | 12 ± 0.056 µg/mL (≈ 20.7 µM) | 1.1 | 94 ± 0.82 µg/mL (≈ 162 µM) | Selectivity Index = IC50 of HSF/ IC50 of MCF7 (MCF7 cell line; listed as 8B): 8.3
8 | CC(=O)C1C(c2ccc([N+](=O)[O-])cc2)c2c(C)nc3sc(C(=O)Nc4cccc5ccccc45)c(N)c3c2CC1(C)O (centres unmarked) [Compound 9b, 7-Acetyl-1-amino-N-(naphthalen-1-yl)−5,8-dimethyl-8-hydroxy-6-(4-Nitrophenyl)−6,7,8,9-tetrahydrothieno[2,3-c]isoquinoline-2-carboxamide] | 30.2% | 55.6% | 51.7% | 45% | 58% | 35.7% | 70% | 55.2% | 58% | 56.2% | 86 µg/mL (≈ 148 µM) | 1.1 | 80 ± 0.05 µg/mL (≈ 138 µM) | 0.98 | 87 ± 0.61 µg/mL (≈ 150 µM) | 
